Assay results reported in PMC5725665, “Discovery of a Highly Selective Cell‐Active Inhibitor of the Histone Lysine Demethylases KDM2/7” (Angewandte Chemie (International Ed. in English), 2017).

Experiments:
Experiment in all cases: biochemical
Set-up in all cases: AlphaScreen histone demethylase activity assay
JMJD2C (KDM4C) = molecular target: T1, JMJD2C (KDM4C) (Homo sapiens, UniProt Q9H3R0)
T1 sequence (Q9H3R0 1-1056): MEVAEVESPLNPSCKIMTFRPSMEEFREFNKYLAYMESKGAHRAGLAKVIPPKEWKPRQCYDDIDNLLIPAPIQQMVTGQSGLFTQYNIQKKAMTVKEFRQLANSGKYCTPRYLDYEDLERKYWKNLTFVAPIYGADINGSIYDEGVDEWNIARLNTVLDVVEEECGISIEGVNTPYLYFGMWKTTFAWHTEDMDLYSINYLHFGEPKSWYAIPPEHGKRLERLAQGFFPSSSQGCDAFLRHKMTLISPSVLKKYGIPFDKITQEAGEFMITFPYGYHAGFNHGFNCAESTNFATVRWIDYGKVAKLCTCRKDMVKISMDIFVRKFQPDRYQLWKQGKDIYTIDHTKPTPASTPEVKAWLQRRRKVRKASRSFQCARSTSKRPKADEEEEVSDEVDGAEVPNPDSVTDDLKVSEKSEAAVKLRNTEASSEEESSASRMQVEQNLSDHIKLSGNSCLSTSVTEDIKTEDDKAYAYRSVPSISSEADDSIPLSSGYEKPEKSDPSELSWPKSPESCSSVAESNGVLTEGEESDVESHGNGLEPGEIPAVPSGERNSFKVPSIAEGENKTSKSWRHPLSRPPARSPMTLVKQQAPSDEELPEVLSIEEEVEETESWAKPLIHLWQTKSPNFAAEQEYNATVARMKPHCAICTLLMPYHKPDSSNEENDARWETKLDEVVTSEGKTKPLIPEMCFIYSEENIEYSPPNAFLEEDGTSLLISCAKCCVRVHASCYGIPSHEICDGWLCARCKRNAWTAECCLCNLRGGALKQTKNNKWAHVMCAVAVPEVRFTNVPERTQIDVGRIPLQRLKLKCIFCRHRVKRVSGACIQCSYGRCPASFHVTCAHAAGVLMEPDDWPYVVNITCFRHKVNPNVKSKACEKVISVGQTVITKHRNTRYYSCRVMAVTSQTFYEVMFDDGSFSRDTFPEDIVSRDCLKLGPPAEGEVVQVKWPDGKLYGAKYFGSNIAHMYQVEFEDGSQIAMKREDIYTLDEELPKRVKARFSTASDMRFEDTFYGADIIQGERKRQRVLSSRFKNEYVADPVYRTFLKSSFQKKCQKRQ
Text: (§1) A base‐mediated 5‐endo‐trig cyclization of a C‐2‐substituted aromatic imine afforded the racemic indoline core with two adjacent stereocenters. Subsequent acylation of the indoline ring system conferred stability towards oxidation and provided a handle for modulating polarity. Finally, metal‐catalysed cross‐coupling of the aryl bromide provided access to a variety of linkers between the indoline core and pyrrolidine capping group. In total, 45 racemic compounds were synthesized, and IC50 values for inhibition of KDM2A were determined using two orthogonal enzyme activity assays: AlphaScreen25 and RapidFire MS26 (see Section S3.1 in the Supporting Information for complete inhibition data). Key structure–activity relationships are summarized below (Scheme 1 B, compounds 2–12). […] In immunofluorescence assays using HeLa cells ectopically expressing catalytically active KDM2A, a dose‐dependent increase in H3K36me2 staining was observed upon incubation with (S,S)‐6, reflecting augmented cellular H3K36me2 levels (Figure 2 A and Section S3.3). […] To profile its selectivity, (S,S)‐6 was tested for inhibitory activity against a panel of KDMs, methyllysine binding motifs, and epigenetic enzymes.

PHF8 (KDM7B) = PHF8 (KDM7B) (Homo sapiens, UniProt Q9UPP1); conditions: read-out: KDM7B pIC50 (converted)
PHF8 (KDM7B), sequence (Q9UPP1 whole entry): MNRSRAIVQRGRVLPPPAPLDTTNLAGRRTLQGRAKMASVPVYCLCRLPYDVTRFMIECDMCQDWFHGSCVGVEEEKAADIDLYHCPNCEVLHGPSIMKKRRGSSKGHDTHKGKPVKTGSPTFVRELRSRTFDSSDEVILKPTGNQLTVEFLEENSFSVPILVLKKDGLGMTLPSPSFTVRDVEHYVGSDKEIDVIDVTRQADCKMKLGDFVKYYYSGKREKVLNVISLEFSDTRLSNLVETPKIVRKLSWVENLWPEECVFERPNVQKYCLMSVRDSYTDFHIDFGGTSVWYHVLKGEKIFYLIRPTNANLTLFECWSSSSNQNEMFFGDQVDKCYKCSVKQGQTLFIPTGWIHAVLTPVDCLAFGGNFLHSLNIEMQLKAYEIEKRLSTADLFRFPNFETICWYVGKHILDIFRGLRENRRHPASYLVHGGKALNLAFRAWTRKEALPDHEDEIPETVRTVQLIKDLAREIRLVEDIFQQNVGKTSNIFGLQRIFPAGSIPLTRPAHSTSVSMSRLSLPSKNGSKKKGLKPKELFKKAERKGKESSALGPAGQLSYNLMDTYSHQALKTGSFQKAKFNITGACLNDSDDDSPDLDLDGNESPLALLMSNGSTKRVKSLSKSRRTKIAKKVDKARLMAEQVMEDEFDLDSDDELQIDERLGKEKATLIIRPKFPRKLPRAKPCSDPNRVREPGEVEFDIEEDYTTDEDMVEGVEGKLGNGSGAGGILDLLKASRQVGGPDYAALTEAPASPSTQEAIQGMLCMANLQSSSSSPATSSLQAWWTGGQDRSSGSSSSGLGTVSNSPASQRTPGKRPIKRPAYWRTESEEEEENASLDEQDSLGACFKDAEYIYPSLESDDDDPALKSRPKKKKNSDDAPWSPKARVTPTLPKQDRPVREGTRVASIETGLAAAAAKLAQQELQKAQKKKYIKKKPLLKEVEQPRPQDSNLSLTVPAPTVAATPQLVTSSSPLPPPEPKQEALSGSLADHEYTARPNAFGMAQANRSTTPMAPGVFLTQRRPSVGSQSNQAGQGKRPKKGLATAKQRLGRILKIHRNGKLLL
Text: as §1

JARID1B (KDM5B) = JARID1B (KDM5B) (Homo sapiens, UniProt Q9UGL1); conditions: read-out: KDM5B pIC50 (converted)
JARID1B (KDM5B), sequence (Q9UGL1 whole entry): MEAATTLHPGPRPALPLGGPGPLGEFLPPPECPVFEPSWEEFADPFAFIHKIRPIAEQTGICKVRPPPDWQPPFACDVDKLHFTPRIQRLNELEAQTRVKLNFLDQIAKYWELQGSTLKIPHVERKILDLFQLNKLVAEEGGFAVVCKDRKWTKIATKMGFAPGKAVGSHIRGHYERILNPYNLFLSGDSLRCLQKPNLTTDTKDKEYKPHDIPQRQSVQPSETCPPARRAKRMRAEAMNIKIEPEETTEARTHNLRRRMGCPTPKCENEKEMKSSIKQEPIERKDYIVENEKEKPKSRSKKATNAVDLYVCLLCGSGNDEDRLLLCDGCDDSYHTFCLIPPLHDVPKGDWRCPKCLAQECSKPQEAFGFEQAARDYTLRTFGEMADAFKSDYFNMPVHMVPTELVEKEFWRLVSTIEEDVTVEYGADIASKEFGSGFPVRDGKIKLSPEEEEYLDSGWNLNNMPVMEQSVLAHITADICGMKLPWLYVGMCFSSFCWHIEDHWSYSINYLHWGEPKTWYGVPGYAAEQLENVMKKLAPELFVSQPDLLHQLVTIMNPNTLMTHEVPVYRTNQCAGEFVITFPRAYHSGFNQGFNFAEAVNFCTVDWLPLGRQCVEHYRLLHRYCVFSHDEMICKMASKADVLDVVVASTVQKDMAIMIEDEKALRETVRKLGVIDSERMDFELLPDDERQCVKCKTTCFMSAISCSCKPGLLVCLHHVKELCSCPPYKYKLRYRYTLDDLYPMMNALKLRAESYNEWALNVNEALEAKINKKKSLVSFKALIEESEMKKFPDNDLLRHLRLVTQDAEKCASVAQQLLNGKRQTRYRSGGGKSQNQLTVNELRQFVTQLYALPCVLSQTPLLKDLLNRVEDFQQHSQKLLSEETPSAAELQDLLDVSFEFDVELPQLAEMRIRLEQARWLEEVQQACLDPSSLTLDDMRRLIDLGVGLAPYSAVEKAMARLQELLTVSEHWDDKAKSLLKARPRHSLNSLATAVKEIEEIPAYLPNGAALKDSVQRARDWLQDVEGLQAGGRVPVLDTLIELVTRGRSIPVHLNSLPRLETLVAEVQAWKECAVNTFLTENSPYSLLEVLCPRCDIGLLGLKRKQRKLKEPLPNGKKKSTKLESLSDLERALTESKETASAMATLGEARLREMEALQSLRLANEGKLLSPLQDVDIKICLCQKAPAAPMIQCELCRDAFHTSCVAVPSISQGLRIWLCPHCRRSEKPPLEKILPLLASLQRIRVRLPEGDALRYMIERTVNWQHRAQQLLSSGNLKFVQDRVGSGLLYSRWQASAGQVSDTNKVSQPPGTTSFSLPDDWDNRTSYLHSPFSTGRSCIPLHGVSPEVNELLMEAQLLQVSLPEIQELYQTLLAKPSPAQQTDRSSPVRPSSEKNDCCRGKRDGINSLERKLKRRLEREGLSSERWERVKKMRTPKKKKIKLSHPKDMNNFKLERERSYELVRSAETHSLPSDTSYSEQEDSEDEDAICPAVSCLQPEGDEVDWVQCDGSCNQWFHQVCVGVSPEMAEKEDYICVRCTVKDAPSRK
Text: as §1

JMJD1A (KDM3A) = molecular target: T2, JMJD1A (KDM3A) (Homo sapiens, UniProt Q9Y4C1)
T2 sequence (Q9Y4C1 1-1321): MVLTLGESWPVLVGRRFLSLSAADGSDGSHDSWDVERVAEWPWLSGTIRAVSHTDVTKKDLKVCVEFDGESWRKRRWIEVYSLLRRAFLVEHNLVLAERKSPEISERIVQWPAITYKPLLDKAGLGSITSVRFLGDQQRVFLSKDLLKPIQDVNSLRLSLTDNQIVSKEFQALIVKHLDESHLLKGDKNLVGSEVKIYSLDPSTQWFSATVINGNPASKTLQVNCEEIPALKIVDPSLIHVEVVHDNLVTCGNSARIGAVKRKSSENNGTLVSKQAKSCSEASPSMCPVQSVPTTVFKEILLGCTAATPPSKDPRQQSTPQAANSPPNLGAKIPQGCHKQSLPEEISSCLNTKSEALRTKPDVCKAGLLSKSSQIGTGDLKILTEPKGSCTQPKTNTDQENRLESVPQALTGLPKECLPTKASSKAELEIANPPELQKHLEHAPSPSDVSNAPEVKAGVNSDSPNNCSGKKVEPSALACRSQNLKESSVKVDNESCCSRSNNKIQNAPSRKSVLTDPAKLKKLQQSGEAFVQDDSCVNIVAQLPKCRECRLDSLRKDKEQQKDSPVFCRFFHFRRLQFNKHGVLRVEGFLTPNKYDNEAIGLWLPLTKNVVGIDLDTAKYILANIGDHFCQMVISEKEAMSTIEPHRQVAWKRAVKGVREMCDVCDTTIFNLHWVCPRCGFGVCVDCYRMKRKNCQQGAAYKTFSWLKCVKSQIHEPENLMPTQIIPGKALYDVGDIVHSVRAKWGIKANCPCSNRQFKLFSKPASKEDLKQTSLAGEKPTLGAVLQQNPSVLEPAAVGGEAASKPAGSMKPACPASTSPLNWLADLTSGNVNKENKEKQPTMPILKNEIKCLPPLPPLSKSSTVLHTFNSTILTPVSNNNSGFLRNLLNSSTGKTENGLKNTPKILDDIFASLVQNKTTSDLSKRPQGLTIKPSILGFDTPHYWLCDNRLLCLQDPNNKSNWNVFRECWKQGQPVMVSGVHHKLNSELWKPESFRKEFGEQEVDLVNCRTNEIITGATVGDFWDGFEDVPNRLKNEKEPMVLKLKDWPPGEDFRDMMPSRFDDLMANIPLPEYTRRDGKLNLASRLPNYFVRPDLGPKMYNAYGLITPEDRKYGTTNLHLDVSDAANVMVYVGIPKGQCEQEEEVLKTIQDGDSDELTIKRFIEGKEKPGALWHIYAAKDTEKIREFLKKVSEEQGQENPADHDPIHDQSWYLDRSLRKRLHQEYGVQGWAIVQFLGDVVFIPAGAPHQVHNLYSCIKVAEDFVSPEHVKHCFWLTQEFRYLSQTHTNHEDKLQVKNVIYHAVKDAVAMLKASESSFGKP
Text: as §1

inhibition at 10 µM (JMJD2C (KDM4C); read-out: KDM4C % Inhib. (10 uM)): 30.5% | IC50 (JMJD2C (KDM4C); read-out: KDM4C pIC50 (converted)): > 100 µM | IC50 (PHF8 (KDM7B)): 22.8 µM | IC50 (JARID1B (KDM5B)): 13.1 µM | inhibition at 100 µM (JMJD1A (KDM3A)): 35.4% | IC50 (JMJD1A (KDM3A); read-out: KDM3A pIC50 (converted)): > 100 µM
Structure (SMILES): CC(=O)N1c2ccccc2[C@@](C#N)(c2ccccc2)[C@@H]1c1cncc(CCCCCCCN2CCCC2)c1 [(S,S)-6]
